Data: US10765114B2, “4-amino-6-(pyridyl and 2-substitutedphenyl)-picolinates and 6-amino-2-(pyridyl and 2-substitutedphenyl)-pyrimidine-4-carboxylates and their use as herbicides” (Dow AgroSciences LLC, priority 2013, dated 2020)
Where two headings read alike, the source gives them in different places.

Key:
[1] = system: Key Broadleaf Weed and Crop Species; test: Post-Emergent Test II (Table 5); assay type: in vivo; conditions: post-emergence, 336 h; for pest or weed control at 70 g/ha: application rate 70 (kg ai/ha; footnote: g ai/ha); for pest or weed control at 140 g/ha: application rate 140 (kg ai/ha; footnote: g ai/ha)
Outline: (§1)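 Seedlings are raised 7-21 days in Metro-Mix 360 (pH 6.0-6.8) under greenhouse conditions, then sprayed at the first or second true leaf stage. Application is 187 L/ha, with serial rates down to 1/16× of the highest. Plants are subirrigated, and percent injury is rated visually after 14 days.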

[2] = system: Key Grass and Sedge Weeds as well as Grass Crops; test: Post-Emergent Test II (Table 6); assay type: in vivo; conditions: post-emergence, 336 h, 14 days after application; for pest or weed control at 70 g/ha: 70 g ai/ha; for pest or weed control at 140 g/ha: 140 g ai/ha
Outline: as §1

[3] = Abutilon theophrasti, ABUTH: velvetleaf (Abutilon theophrasti), read-out: Visual Growth Reduction (%) 14 Days After Application ABUTH
[4] = Amaranthus retroflexus, AMARE: redroot pigweed (Amaranthus retroflexus), read-out: Visual Growth Reduction (%) 14 Days After Application AMARE
[5] = Brassica napus, BRSSS: oilseed rape, canola (Brassica napus), read-out: Visual Growth Reduction (%) 14 Days After Application BRSSS
[6] = Chenopodium album, CHEAL: lambsquarters (Chenopodium album), read-out: Visual Growth Reduction (%) 14 Days After Application CHEAL
[7] = Euphorbia heterophylla, EPHHL: wild poinsettia (Euphorbia heterophylla), read-out: Visual Growth Reduction (%) 14 Days After Application EPHHL
[8] = Helianthus annuus, HELAN: sunflower (Helianthus annuus), read-out: Visual Growth Reduction (%) 14 Days After Application HELAN
[9] = Viola tricolor, VIOTR: wild pansy (Viola tricolor), read-out: Visual Growth Reduction (%) 14 Days After Application VIOTR
[10] = CYPSS, read-out: Visual Growth Reduction (%) 14 Days After Application CYPSS
[11] = DIGSA: crabgrass (Digitaria sanguinalis), read-out: Visual Growth Reduction (%) 14 Days After Application DIGSA
[12] = ECHSS, read-out: Visual Growth Reduction (%) 14 Days After Application ECHSS
[13] = ORYSS (crop), read-out: Visual Growth Reduction (%) 14 Days After Application ORYSS
[14] = SETFA: giant foxtail (Setaria faberi), read-out: Visual Growth Reduction (%) 14 Days After Application SETFA
[15] = SORVU: grain sorghum (Sorghum vulgare), read-out: Visual Growth Reduction (%) 14 Days After Application SORVU
[16] = TRZSS (crop), read-out: Visual Growth Reduction (%) 14 Days After Application TRZSS
[17] = ZEAMX: maize, corn (Zea mays), read-out: Visual Growth Reduction (%) 14 Days After Application ZEAMX

| Structure (SMILES) | pest or weed control at 70 g/ha [1, 3] | pest or weed control at 140 g/ha [1, 3] | pest or weed control at 70 g/ha [1, 4] | pest or weed control at 140 g/ha [1, 4] | pest or weed control at 70 g/ha [1, 5] | pest or weed control at 140 g/ha [1, 5] | pest or weed control at 70 g/ha [1, 6] | pest or weed control at 140 g/ha [1, 6] | pest or weed control at 70 g/ha [1, 7] | pest or weed control at 70 g/ha [1, 8] | pest or weed control at 140 g/ha [1, 8] | pest or weed control at 70 g/ha [1, 9] | pest or weed control at 140 g/ha [1, 9] | pest or weed control at 70 g/ha [2, 10] | pest or weed control at 140 g/ha [2, 10] | pest or weed control at 70 g/ha [2, 11] | pest or weed control at 140 g/ha [2, 11] | pest or weed control at 70 g/ha [2, 12] | pest or weed control at 140 g/ha [2, 12] | pest or weed control at 70 g/ha [2, 13] | also measured |
| --- | --- | --- | --- | --- | --- | --- | --- | --- | --- | --- | --- | --- | --- | --- | --- | --- | --- | --- | --- | --- | --- |
| COC(=O)c1nc(-c2ccc(C(F)(F)F)nc2)cc(N)c1Cl [Compound 4] | 75 to 84% | 75 to 84% | 85 to 94% | 95 to 100% | 30 to 44% | 60 to 74% | 75 to 84% | 85 to 94% | 75 to 84% | 60 to 74% | 75 to 84% | 0 to 29% | 0 to 29% | 60 to 74% | 60 to 74% | 0 to 29% | 0 to 29% | 30 to 44% | 75 to 84% | 0 to 29% | pest or weed control at 140 g/ha [1, 7]: 85 to 94%; pest or weed control at 140 g/ha [2, 13]: 0 to 29%; pest or weed control at 70 g/ha [2, 14]: 0 to 29%; pest or weed control at 140 g/ha [2, 14]: 0 to 29%; pest or weed control at 70 g/ha [2, 15]: 45 to 59%; pest or weed control at 140 g/ha [2, 15]: 60 to 74%; pest or weed control at 70 g/ha [2, 16]: 0 to 29%; pest or weed control at 140 g/ha [2, 16]: 0 to 29%; pest or weed control at 70 g/ha [2, 17]: 0 to 29%; pest or weed control at 140 g/ha [2, 17]: 0 to 29% |
| Nc1c(F)c(-c2ccc(Br)nc2)nc(C(=O)O)c1Cl [Compound 8, 4-amino-6′-bromo-5-chloro-3-fluoro-[2,3′-bipyridine]-6-carboxylic acid] | 85 to 94% | 95 to 100% | 95 to 100% | 95 to 100% | 95 to 100% | 95 to 100% | 95 to 100% | 95 to 100% | 75 to 84% | 95 to 100% | 95 to 100% | 95 to 100% | 95 to 100% | 95 to 100% | 95 to 100% | 85 to 94% | 95 to 100% | 85 to 94% | 95 to 100% | 60 to 74% | pest or weed control at 140 g/ha [1, 7]: 95 to 100%; pest or weed control at 140 g/ha [2, 13]: 75 to 84%; pest or weed control at 70 g/ha [2, 14]: 85 to 94%; pest or weed control at 140 g/ha [2, 14]: 85 to 94%; pest or weed control at 70 g/ha [2, 15]: 85 to 94%; pest or weed control at 140 g/ha [2, 15]: 95 to 100%; pest or weed control at 70 g/ha [2, 16]: 85 to 94%; pest or weed control at 140 g/ha [2, 16]: 95 to 100%; pest or weed control at 70 g/ha [2, 17]: 85 to 94%; pest or weed control at 140 g/ha [2, 17]: 95 to 100% |
| COC(=O)c1nc(-c2ccc(C(F)(F)F)c(F)c2C)cc(N)c1Cl [Compound 9, methyl 4-amino-3-chloro-6-(3-fluoro-2-methyl-4-(trifluoromethyl)phenyl)picolinate] | 85 to 94% | 85 to 94% | 0 to 29% | 0 to 29% | 0 to 29% | 0 to 29% | 85 to 94% | 95 to 100% | 95 to 100% | 0 to 29% | 85 to 94% | 0 to 29% | 0 to 29% | 95 to 100% | 95 to 100% | 0 to 29% | 0 to 29% | 0 to 29% | 0 to 29% | 0 to 29% | pest or weed control at 140 g/ha [2, 13]: 0 to 29%; pest or weed control at 70 g/ha [2, 15]: 0 to 29%; pest or weed control at 140 g/ha [2, 15]: 30 to 44%; pest or weed control at 70 g/ha [2, 16]: 0 to 29%; pest or weed control at 140 g/ha [2, 16]: 0 to 29%; pest or weed control at 70 g/ha [2, 17]: 0 to 29%; pest or weed control at 140 g/ha [2, 17]: 30 to 44% |
| Nc1c(F)c(-c2ccc(Cl)c(Cl)c2Cl)nc(C(=O)O)c1Cl [Compound 10] | 0 to 29% | 0 to 29% | 95 to 100% | 95 to 100% | 95 to 100% | 95 to 100% | 75 to 84% | 75 to 84% | 60 to 74% | 0 to 29% | 0 to 29% | 0 to 29% | 0 to 29% | 0 to 29% | 0 to 29% | 0 to 29% | 45 to 59% | 0 to 29% | 0 to 29% | 0 to 29% | pest or weed control at 140 g/ha [1, 7]: 75 to 84%; pest or weed control at 140 g/ha [2, 13]: 0 to 29%; pest or weed control at 70 g/ha [2, 14]: 0 to 29%; pest or weed control at 140 g/ha [2, 14]: 0 to 29%; pest or weed control at 70 g/ha [2, 15]: 0 to 29%; pest or weed control at 140 g/ha [2, 15]: 0 to 29%; pest or weed control at 70 g/ha [2, 16]: 75 to 84%; pest or weed control at 140 g/ha [2, 16]: 85 to 94%; pest or weed control at 70 g/ha [2, 17]: 60 to 74%; pest or weed control at 140 g/ha [2, 17]: 60 to 74% |
